Assay results: patent US10308881B2, “Process to produce oil with low polyaromatic hydrocarbon content” (PT PERTAMINA (PERSERO), priority 2010, dated 2019)

Tested on: Salmonella typhimurium TA 1535
Assay: Mutagenicity test (AMES Test, OECD Guidelines for Testing of Chemicals No. 471)
Type: cell-based
Conditions: without dilution
Text: One of the important consideration published in the European Commission 2005/69/EC (European legislation) confirmed the restriction that the level of 8 Grimmers PAHs especially Benzo(a)pyrene (BaP) with amount exceeding the allowed limit will be considered as carcinogenic, mutagenic and toxic, and thereby will be prohibited to produce and distribute within the European legislation area. The presence of PAHs can be detected qualitatively and quantitatively using Benzo(a)Pyrene (BaP) as marker. Commonly known method to measure carcinogenic and mutagenic compound is ASTM E 1687-98 method (Ames test method for determining carcinogenic potential of Virgin Base Oils in Metalworking Fluids) and also Ames test based on OECD Guidelines for Testing of Chemicals No 471(1997). In the present invention method of AMES test using Salmonella typhimurium TA 1535 as microbes that is very sensitive to mutagenic compounds.
The mutagenity test was conducted using AMES Test based on OECD Guidelines for Testing of Chemicals No. 471 (1997). In this test Salmonella typhimurium TA 1535 was used as microbe material which was very sensitive to mutagenic compound. The number of colony which grew was an indicator of mutagenic activity of the PAH compound in the DAE Feed, TDAE-1 and TDAE-2, respectively. […]

SMILES: C[S+](C)[O-] [DMSO, dimethylsulfoxide]
- Average Number of Colony Koloni (With S-9 Mix): 377
- Average Number of Colony Koloni (Without S-9 Mix): 314
